The values that follow come from US11970452B2, “Modulators of mas-related G-protein receptor X2 and related products and methods” (Escient Pharmaceuticals, Inc., priority 2020, dated 2024).

pIC50: −log10 of the molar value.

One test relates to Human LAD2 cells. The experiment in a line: Mast Cell Beta-Hexosaminidase Release Assay (versus 500 nM Cortistatin-14). Format: cell-based. The note with it: 500 nM Cortistatin-14 agonist, read-out: MRGPR2 Antagonist Activity. As to the method: Human LAD2 cells (NIH) were maintained in an incubator at 37° C. with 5% CO2 and cultured in StemPro-34 serum-free media (Gibco 10639011) supplemented with 2 mM L-glutamine, 100 U/ml penicillin, […] streptomycin and 100 ng/ml SCF (Invitrogen PEP0860), at a concentration of 2-5×10^5 cells/mL, with hemidepletion every 1-2 weeks.
Cells were transferred to SCF-Free medium at 2.5×10^5 cells/mL and kept in an incubator overnight. On the day of the assay, cells were washed twice in Assay Buffer (final concentrations 10 mM HEPES, 137 mM NaCl, 5.6 mM D-glucose, 2.7 mM KCl, 1 mM MgCl, 1.8 mM CaCl2, 0.4 mM Na2HPO4.7H2O, 0.04% BSA, pH=7.4) and plated in a 96-well v-bottom plate at 20,000 cells per well in 80 μL Assay Buffer. Antagonist compounds solubilized at 10 mM in DMSO were diluted in Assay Buffer to 10× final desired concentrations as a 10-point curve (10 μM final top concentration with 1:3 serial dilutions) and 10 μL added per well. Plates were then incubated for 1 hour at 37° C. Agonists were diluted in Assay Buffer to 10× desired concentrations and 10 μL of the appropriate agonist added to each well. The final concentration of Cortistatin-14 (Tocris 3374) used in antagonist assays was 500 nM. Final concentrations of DMSO were kept consistent across the plate. Plates were then incubated in a warm air oven for 30 minutes at 37° C., followed by centrifugation at 4° C. for 5 minutes at 450×g. 50 μL supernatant from each well was then transferred to a 96-well flat bottom plate containing 100 μL substrate solution per well (3.5 mg/mL p-Nitrophenyl-N-acetyl-β-D-glucosaminide (Sigma 487052) in Citrate Buffer containing a final concentration of 40 mM Citric Acid, 20 mM Na2HPO4.7H2O, pH=4.5). To the cell pellets left in the remaining assay buffer, 150 μL 0.1% Triton-X-100 was then added to each well, resuspended by pipetting up and down, and 50 μL cell lysates transferred to a second 96-well flat bottom plate containing 100 μL substrate solution per well. Plates containing transferred supernatant and cell lysates were then incubated in a warm air oven for 90 minutes at 37° C. After incubation, 50 μL of 400 mM Glycine buffer (pH 10.7) was added into each well and the plate was read on a Molecular Devices SpectraMax iD5 plate reader (absorbance at 405 nm with reference filter at 620 nm). After background subtraction, the percentage degranulation (percent beta-hexosaminidase release) was calculated as 100×(supernatant values)/(supernatant+lysate values), followed by analysis using GraphPad Prism software to calculate an IC50 value for each compound.
(§1) The activity ranges are denoted as follows: “+++++” denotes antagonist activity <100 nM; “++++” denotes antagonist activity between 100 and 500 nM; “+++” denotes activity between 501 and 1000 nM; “++” denotes activity between 1001 and 2500 nM; and “+” denotes activity >2500 nM

The target in the next test is T1, human MRGPRX2 (Homo sapiens, UniProt Q96LB1).
T1 construct: expressed in transfected cells
T1 sequence (Q96LB1 1-330): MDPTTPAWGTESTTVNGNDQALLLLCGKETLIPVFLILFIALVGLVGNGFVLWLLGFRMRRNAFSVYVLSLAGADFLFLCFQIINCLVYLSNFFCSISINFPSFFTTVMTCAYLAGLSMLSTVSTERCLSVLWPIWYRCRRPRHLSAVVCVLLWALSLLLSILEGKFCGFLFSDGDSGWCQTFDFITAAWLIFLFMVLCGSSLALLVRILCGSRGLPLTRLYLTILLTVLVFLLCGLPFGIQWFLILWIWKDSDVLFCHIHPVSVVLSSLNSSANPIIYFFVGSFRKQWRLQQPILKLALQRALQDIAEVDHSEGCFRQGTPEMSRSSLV
Briefly: MRGPRX2 activity: IP-One HTRF antagonist assay versus 0.3 uM Cortistatin 14. Format: cell-based. The note with it: CHO cells expressing human MRGPRX2; IP-1 HTRF; versus 0.3 uM Cortistatin 14 agonist; read-out: MRGPR2 Antagonist Activity. As to the method: CHO cells stably transfected to express human MRGPRX2 were maintained in an incubator at 37° C. with 5% CO2 and grown in F12 (HAM) media with 10% fetal bovine serum (FBS), 1% Glutamax, 1% penicillin/streptomycin, 800 μg/mL Geneticin (G418), and 300 μg/mL Hygromycin B.
Cells were plated in a […] assay plate at 20,000 cells per well in 12 μL of Opti-MEM and kept in an incubator overnight. On the day of the assay, compounds solubilized at 10 mM in DMSO were added as a 10-point curve (30 uM final top concentration with 1:3 serial dilutions) using a Tecan D300E digital dispenser. Agonists were diluted in assay buffer (final concentrations of 5.7 mM Tris-HCl, 43 mM NaCl, 50 mM LiCl, pH=8) and 2 μL of the agonist Cortistatin 14 (CPC Scientific, catalog CORT-002) are added to each well. Final concentrations of agonists were 0.3 μM Cortistatin. Final concentrations of DMSO were kept consistent across the plate. Plates were incubated in the dark for 1 h at 37° C. and then for 1 h at room temperature. IP-1 standards and HTRF detection reagents were added according to the IP-One-Gq Kit purchased from Cisbio (part number 62IPAPEJ) and incubated in the dark for 1 h at room temperature. The plate was read on a Molecular Devices SpectraMax iD5 plate reader. The HTRF ratio was calculated from the raw data and graphed using GraphPad Prism to calculate an IC50 value for each compound.
as §1

Take `O=C(N[C@H]1CC[C@@H](Nc2cc(C(F)(F)F)nc3ccc(F)cc23)CC1)c1ccc(F)cc1` [1-4, 4-fluoro-N-[(1s,4s)-4-{[6-fluoro-2-(trifluoromethyl)quinolin-4-yl]amino}cyclohexyl]benzamide]: the pIC50 in the test on Human LAD2 cells was 6.30 to 7.00.
Still for that read-out and setting: the figure for `O=C(N[C@H]1CC[C@@H](Nc2cc(C(F)(F)F)nc3ccc(Cl)cc23)CC1)c1ccc(F)cc1` [1-5, 4-fluoro-N-[(1s,4s)-4-{[6-chloro-2-(trifluoromethyl)quinolin-4-yl]amino}cyclohexyl]benzamide] is 6.30 to 7.00; for `O=C(N[C@H]1CC[C@@H](Nc2nc(C(F)(F)F)nc3ccccc23)CC1)c1ccc(F)cc1` [1-7, 4-fluoro-N-[(1s,4s)-4-{[2-(trifluoromethyl)quinazolin-4-yl]amino}cyclohexyl]benzamide] it is 6.00 to 6.30; for `O=C(N[C@H]1CC[C@@H](Nc2cc(C(F)(F)F)nc3ccccc23)CC1)c1ccc(Cl)cc1` [3-10] it is 6.30 to 7.00.
With `CN(C)c1ccc(C(=O)N[C@H]2CC[C@@H](Nc3cc(C(F)(F)F)nc4ccccc34)CC2)cc1` [3-25], the pIC50 at human MRGPRX2 and in the test with Human LAD2 cells was 6.30 to 7.00 throughout.
On to `O=C(N[C@H]1CC[C@@H](Nc2cc(C(F)(F)F)nc3ccccc23)CC1)c1ccccc1` [3-30], for which the pIC50 was 6.30 to 7.00 on human MRGPRX2 and 6.00 to 6.30 in the test with Human LAD2 cells.
Take `CC(=O)Nc1cccc(C(=O)N[C@H]2CC[C@@H](Nc3cc(C(F)(F)F)nc4ccc(Cl)cc34)CC2)c1` [4-7]: the pIC50 on human MRGPRX2 is more than 7.00; with Human LAD2 cells, 6.30 to 7.00.
Consider `CNc1ccc(C(=O)N[C@H]2CC[C@@H](Nc3cc(C(F)(F)F)nc4ccc(Cl)cc34)CC2)cc1` [4-9], for which, in the test on Human LAD2 cells, the pIC50 was more than 7.00.
Still for that read-out and setting: the figure for `O=C(N[C@H]1CC[C@@H](Nc2cc(C(F)(F)F)nc3ccc(Cl)cc23)CC1)c1ccnc2[nH]ccc12` [4-139] is more than 7.00; for `N#Cc1cccc(C(=O)N[C@H]2CC[C@@H](Nc3nc(C(F)(F)F)nc4ccccc34)CC2)c1` [4-288] it is 6.00 to 6.30.
